One assay deals with C2C12 myocytes. The assay is described as follows: Lipolysis (glycerol / free fatty acid release) in C2C12 myocytes. Format: cell-based, murine. Conditions: test materials 5 or 2.5 μg/mL (FIG. 10). The protocol: Cell culture and treatment-Culture and treatment of 3T3-L1 adipocytes and C2C12 myocytes was as described in Example 5. Concentrations of the forskolin positive control and test materials are listed in FIG. 9 for adipocytes and FIG. 10 for myocytes. Glycerol assay-Free fatty acid release from 3T3-L1 adipocytes or C2C12 myocytes was quantified by measuring glycerol secretion into the medium. Glycerol was measured spectrophotometrically using the Free Glycerol Determination Kit ([…], Sigma) and an EL 312e Microplate BIO-KINETICS spectrophotometer (BioTek, Winooski, Vt.). Data analysis-Glycerol release from adipocytes and myocytes was expressed, respectively, as the percent increase in free fatty acid secretion (FIG. 9) and relative glycerol content (glycerol index FIG. 10) ±95% confidence intervals of eight observations for one of three representative experiments.

The test system of another assay is Caco-2 monolayers. The assay is described as follows: LPS/H2O2-mediated loss of transepithelial electrical resistance in Caco-2 monolayers. Format: cell-based, human. An excerpt: Caco-2 Cells—The protocol for growing and differentiation the human Caco-2 colon andenocarcinoma cells was a modification of Protocol 3 as described by Yamashita et al. [Yamashita, S., Konishi, K., Yamazaki, Y., Taki, Y., Sakane, T., Sezaki, H., and Furuyama, Y. (2002) New and better protocols for a short-term Caco-2 cell culture system, J Pharm Sci 91, 669-679]. Caco-2 Human Colon Adenocarcinoma cells were obtained from ATCC (Rockville, Md.; catalog #HTB-37) and maintained in a growth media: DMEM (Dulbecco's Modified Eagles Medium 1×) containing L-glutamine, glucose; Cellgro catalog #35-010CV with the following additions: (1) Penicillin (5,000 IU/mL)/Streptomycin (5,000 μg/mL) Cellgro catalog #30-001C1, (2) 10% FBS—Fetal Bovine Serum, Characterized; Hyclone catalog #SH30071.3, and (3) 1% NEAA—Non Essential Amino Acids; Cellgro catalog #25-025-CI; cells were cultured at 37 C in a humidified air-5% CO2 atmosphere in T175 flasks.
Differentiation of Caco-2 cells to intestinal epithelial cells—BIOCOAT^R HTS Caco-2 Assay System kits (Becton Dickinson, N.J.; catalog #354801) consisting of 24-well fibrillar collagen coated inserts and feeder trays were used in all experiments and plated as follows. Media was removed from the T175 flasks and cells were washed with 10 mLs PBS (phosphate buffered saline 1× without Ca^++, without Mg^++; Cellgro #25-053-CI). […]

From patent US8535740B2, “Compositions from Nigella sativa” (priority 2002, dated 2013) come the findings set out here.

As to `CC1=CC(=O)C(C(C)C)=CC1=O` [Thymoquinone (Sigma), thymoquinone], the “free fatty acid release in myocytes” value with C2C12 myocytes is “induced free fatty acid release”. Besides, in the assay with Caco-2 monolayers (10 uM H2O2 + 50 μg/mL LPS, three hours, positive control set to 100, each material at its tabulated concentration (TQ 5.0, NS8 0.11, NS9 0.99, NS10 0.012, NSSpent#2 0.0005 μg TQ equivalents/mL; Spent#1 5 μg/mL)), the “Relative Loss of TEER” value turned out to be 111. In the assay with Caco-2 monolayers (concentrations of Table 6), the “effect on LPS/H2O2-mediated loss of TEER” value is “no effect”.
